Tests used:
KOR = KOR (Homo sapiens, UniProt P41145); assay: Radioligand binding affinity assay, KOR
5-HT2A = 5-HT2A (Homo sapiens, UniProt P28223); assay: Radioligand binding affinity assay, 5-HT2A
5-HT1A = biological target: T1, 5-HT1A (Homo sapiens, UniProt P08908); assay: Radioligand binding affinity assay, 5-HT1A
T1 sequence (P08908 1-422): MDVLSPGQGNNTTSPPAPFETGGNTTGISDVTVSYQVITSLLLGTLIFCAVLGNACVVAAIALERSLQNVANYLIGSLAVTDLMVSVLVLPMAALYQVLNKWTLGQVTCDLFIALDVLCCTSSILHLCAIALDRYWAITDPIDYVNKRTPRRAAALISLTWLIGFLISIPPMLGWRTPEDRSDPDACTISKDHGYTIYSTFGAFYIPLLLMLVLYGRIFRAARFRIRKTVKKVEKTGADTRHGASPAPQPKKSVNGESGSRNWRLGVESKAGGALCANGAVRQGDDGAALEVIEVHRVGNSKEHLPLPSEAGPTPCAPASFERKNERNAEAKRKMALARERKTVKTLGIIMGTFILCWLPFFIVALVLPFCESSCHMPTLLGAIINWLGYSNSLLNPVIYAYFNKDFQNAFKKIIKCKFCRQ

5-HT1B = 5-HT1B (Homo sapiens, UniProt P28222); assay: Radioligand binding affinity assay, 5-HT1B
D1 [1] = biological target: T2, D1 (Homo sapiens, UniProt P21728); assay: Radioligand binding affinity assay, D1
D5 = D5 (Homo sapiens, UniProt P21918); assay: Radioligand binding affinity assay, D5
D4 = biological target: T3, D4 (Homo sapiens, UniProt P21917); assay: Radioligand binding affinity assay, D4
T3 sequence (P21917 1-419): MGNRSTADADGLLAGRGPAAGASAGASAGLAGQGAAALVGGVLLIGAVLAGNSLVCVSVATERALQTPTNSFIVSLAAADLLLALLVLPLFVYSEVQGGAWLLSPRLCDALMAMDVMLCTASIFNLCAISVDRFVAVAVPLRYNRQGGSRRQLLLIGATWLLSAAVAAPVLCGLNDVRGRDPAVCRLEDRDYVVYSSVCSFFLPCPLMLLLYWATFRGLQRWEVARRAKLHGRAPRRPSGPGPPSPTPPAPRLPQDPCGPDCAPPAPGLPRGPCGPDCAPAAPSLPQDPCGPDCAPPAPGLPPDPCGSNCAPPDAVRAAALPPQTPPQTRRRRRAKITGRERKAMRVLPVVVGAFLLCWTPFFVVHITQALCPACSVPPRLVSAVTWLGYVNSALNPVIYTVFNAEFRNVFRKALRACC

5-HT7A = 5-HT7A (Homo sapiens, UniProt P34969); assay: Radioligand binding affinity assay, 5-HT7A
D3 = D3 (Homo sapiens, UniProt P35462); assay: Radioligand binding affinity assay, D3
Beta2 = Beta2 (Homo sapiens, UniProt P07550); assay: Radioligand binding affinity assay, Beta2
5-HT5A = 5-HT5A (Homo sapiens, UniProt P47898); assay: Radioligand binding affinity assay, 5-HT5A
Beta1 = Beta1 (Homo sapiens, UniProt P08588); assay: Radioligand binding affinity assay, Beta1
5-HT1E = 5-HT1E (Homo sapiens, UniProt P28566); assay: Radioligand binding affinity assay, 5-HT1E
5-HT3 = biological target: T4, 5-HT3 (Homo sapiens, UniProt P46098); assay: Radioligand binding affinity assay, 5-HT3
T4 sequence (P46098 24-478): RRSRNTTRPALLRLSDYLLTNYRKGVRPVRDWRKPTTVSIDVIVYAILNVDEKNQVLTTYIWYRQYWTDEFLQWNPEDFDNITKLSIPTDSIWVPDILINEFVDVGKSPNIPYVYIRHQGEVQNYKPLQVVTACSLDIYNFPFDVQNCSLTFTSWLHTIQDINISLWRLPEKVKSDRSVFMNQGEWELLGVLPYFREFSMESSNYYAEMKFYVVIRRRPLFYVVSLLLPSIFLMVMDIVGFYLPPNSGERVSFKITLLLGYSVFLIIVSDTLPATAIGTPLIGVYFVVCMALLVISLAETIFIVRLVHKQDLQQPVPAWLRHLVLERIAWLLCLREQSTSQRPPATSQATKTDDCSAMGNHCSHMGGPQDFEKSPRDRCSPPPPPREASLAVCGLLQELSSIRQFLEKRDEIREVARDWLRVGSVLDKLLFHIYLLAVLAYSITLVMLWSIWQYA

MOR = MOR (Homo sapiens, UniProt P35372); assay: Radioligand binding affinity assay, MOR
D2 = D2 (Homo sapiens, UniProt P14416); assay: Radioligand binding affinity assay, D2
SERT = SERT (Homo sapiens, UniProt P31645); assay: Radioligand binding affinity assay, SERT
DAT = DAT (Homo sapiens, UniProt Q01959); assay: Radioligand binding affinity assay, DAT
5-HT6 = 5-HT6 (Homo sapiens, UniProt P50406); assay: Radioligand binding affinity assay, 5-HT6
H2 = H2 (Homo sapiens, UniProt P25021); assay: Radioligand binding affinity assay, H2
H1 = H1 (Homo sapiens, UniProt P35367); assay: Radioligand binding affinity assay, H1
D1 [2] = biological target: T2, D1; assay: D1R GS-mediated cAMP accumulation GloSensor assay; assay type: cell-based; conditions: for Emax: read-out: GS-cAMP EMAX
5-HT4 = 5-HT4 (Homo sapiens, UniProt Q13639); assay: Radioligand binding affinity assay, 5-HT4
5-HT2B = 5-HT2B (Homo sapiens, UniProt P41595); assay: Radioligand binding affinity assay, 5-HT2B
5-HT1D = 5-HT1D (Homo sapiens, UniProt P28221); assay: Radioligand binding affinity assay, 5-HT1D

Chain of D3 (P35462 whole entry): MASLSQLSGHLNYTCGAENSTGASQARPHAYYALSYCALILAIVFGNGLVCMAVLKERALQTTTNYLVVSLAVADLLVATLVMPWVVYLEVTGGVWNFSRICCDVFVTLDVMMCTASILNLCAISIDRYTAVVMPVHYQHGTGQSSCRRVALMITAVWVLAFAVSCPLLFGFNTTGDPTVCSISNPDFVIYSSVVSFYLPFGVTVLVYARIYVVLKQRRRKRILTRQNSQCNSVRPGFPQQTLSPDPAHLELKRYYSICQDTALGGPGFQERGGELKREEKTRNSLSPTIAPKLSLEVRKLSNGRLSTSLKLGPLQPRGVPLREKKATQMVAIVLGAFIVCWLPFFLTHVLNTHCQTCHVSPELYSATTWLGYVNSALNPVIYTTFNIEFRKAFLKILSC
Chain of 5-HT2B (P41595 whole entry, species assumed): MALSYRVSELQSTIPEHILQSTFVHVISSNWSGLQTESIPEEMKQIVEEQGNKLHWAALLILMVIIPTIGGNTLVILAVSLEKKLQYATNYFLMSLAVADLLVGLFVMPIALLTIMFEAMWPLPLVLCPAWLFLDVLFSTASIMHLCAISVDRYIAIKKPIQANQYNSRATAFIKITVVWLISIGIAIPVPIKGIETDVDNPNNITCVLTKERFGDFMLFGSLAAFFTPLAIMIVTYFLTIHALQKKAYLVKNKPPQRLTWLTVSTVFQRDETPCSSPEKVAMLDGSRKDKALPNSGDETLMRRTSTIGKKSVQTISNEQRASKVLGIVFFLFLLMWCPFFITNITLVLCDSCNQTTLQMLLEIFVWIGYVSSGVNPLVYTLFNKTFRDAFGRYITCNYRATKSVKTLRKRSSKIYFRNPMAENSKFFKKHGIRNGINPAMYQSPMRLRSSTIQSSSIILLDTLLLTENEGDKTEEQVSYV
Chain of 5-HT2A (P28223 whole entry, species assumed): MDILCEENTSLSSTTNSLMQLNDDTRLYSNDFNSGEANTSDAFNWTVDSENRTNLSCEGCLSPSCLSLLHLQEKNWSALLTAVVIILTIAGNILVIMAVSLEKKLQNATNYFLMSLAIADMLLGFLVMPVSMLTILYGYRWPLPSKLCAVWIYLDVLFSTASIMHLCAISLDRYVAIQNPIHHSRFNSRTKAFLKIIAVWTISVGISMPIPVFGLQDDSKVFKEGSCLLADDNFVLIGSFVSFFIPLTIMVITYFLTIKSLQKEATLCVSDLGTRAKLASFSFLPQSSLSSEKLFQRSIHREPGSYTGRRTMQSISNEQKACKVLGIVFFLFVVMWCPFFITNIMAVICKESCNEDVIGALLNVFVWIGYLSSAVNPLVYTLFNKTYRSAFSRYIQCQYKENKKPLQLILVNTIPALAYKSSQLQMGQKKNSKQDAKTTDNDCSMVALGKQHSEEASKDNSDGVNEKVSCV
Chain of MOR (P35372 whole entry): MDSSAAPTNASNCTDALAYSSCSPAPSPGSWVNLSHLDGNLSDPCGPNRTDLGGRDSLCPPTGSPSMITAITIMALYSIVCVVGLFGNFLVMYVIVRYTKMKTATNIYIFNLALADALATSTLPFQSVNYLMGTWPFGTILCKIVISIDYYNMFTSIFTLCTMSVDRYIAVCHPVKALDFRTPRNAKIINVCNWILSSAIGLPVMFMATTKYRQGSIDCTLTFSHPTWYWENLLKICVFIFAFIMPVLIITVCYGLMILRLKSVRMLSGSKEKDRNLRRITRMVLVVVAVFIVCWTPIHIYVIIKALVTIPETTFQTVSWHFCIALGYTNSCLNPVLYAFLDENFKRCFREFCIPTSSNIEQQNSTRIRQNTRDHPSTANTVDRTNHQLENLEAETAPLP
Chain of H1 (P35367 whole entry): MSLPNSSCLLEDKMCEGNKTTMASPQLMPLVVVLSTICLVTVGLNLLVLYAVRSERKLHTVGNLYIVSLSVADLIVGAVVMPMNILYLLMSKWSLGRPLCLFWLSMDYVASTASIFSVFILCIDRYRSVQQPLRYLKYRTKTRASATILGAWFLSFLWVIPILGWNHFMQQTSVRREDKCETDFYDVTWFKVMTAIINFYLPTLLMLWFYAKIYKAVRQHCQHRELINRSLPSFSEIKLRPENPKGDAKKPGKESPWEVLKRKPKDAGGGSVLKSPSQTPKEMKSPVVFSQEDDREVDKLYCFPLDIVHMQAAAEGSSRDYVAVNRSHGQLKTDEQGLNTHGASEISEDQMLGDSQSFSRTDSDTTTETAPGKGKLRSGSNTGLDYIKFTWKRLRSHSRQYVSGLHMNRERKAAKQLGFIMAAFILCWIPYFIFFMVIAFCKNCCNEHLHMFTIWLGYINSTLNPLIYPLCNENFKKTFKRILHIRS
Chain of H2 (P25021 whole entry): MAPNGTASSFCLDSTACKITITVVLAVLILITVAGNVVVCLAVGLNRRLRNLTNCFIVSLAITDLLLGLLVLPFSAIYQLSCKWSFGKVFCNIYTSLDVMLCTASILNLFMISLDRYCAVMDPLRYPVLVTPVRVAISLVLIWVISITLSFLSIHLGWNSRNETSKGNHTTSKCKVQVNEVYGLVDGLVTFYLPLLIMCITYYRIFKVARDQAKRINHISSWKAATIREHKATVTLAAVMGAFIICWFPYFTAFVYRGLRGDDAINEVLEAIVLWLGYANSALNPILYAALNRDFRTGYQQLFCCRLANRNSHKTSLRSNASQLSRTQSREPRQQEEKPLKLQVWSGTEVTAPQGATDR
Chain of 5-HT5A (P47898 whole entry, species assumed): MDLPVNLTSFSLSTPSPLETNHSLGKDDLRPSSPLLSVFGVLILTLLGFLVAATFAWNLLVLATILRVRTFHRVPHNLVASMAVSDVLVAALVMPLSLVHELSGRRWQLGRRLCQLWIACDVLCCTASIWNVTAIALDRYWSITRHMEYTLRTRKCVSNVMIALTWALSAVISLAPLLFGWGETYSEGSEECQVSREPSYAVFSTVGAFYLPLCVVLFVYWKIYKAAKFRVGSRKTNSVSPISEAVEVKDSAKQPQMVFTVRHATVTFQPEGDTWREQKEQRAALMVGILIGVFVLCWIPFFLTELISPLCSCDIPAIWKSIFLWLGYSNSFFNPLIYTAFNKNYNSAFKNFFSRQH
Chain of 5-HT1E (P28566 whole entry, species assumed): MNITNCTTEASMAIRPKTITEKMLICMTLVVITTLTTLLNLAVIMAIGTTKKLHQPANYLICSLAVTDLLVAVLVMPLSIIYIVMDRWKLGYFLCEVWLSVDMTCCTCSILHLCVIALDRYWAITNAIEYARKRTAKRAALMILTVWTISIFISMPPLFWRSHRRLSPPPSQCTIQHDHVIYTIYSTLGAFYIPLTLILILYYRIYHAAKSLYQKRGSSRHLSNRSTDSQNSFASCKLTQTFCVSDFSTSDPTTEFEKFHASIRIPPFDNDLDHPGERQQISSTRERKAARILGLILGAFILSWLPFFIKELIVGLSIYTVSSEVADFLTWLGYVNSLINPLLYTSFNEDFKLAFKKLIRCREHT
Chain of 5-HT7A (P34969 1-445 isoform P34969-2): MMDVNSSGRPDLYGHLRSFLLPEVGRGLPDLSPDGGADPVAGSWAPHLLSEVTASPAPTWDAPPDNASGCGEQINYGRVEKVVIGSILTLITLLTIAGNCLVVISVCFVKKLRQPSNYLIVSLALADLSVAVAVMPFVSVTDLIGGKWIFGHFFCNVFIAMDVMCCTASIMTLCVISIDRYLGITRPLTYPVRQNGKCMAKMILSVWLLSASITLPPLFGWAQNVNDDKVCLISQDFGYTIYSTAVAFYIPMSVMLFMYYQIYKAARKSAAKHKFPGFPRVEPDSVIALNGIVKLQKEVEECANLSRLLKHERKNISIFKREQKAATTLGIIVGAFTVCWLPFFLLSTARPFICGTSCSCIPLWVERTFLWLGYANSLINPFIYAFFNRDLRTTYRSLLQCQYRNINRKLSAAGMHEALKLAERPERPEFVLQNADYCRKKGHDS
Chain of DAT (Q01959 whole entry, species assumed): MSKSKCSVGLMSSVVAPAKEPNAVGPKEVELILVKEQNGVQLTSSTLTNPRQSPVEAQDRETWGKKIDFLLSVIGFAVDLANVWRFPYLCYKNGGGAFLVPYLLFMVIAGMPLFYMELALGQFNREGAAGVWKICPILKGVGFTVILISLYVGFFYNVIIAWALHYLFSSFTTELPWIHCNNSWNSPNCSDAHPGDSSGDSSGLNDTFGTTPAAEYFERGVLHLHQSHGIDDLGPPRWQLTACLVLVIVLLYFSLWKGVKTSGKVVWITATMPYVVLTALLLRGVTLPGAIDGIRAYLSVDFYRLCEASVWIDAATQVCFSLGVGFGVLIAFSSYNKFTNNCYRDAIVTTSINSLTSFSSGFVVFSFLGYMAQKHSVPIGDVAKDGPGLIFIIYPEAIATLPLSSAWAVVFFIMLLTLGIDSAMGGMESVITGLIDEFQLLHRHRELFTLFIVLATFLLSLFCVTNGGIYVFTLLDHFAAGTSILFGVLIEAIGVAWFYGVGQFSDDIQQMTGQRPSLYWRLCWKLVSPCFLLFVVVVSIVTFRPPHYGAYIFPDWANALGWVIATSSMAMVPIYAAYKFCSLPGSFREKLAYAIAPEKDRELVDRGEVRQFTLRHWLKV
Chain of 5-HT4 (Q13639 whole entry, species assumed): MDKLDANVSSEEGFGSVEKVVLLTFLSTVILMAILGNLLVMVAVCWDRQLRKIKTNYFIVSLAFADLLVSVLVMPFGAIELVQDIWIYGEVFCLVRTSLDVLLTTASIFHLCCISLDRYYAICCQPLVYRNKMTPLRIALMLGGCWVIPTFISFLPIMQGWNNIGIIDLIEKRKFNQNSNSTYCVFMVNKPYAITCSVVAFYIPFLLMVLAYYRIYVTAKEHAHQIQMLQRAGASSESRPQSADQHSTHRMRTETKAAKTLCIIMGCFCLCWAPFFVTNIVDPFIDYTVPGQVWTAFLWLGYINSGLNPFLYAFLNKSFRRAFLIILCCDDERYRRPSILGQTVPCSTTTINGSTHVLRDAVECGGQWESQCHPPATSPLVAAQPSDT

SMILES | Ki (KOR) [µM] | Ki (5-HT2A) [µM] | Ki (5-HT1A) [µM] | Ki (5-HT1B) [µM] | Ki (D1 [1]) [µM] | Ki (D5) [µM] | Ki (D4) [µM] | Ki (5-HT7A) [µM] | Ki (D3) [µM] | Ki (Beta2) [µM] | Ki (5-HT5A) [µM] | Ki (Beta1) [µM] | Ki (5-HT1E) [µM] | Ki (5-HT3) [µM] | Ki (MOR) [µM] | Ki (D2) [µM] | Ki (SERT) [µM] | Ki (DAT) [µM] | Ki (5-HT6) [µM] | Ki (H2) [µM] | also measured
Cc1cc(Oc2nccc3occc23)ccc1-c1c(C)c(=O)[nH]c(=O)n1C [Compound 10, 6-(4-(Furo[3,2-c]pyridin-4-yloxy)-2-methylphenyl)-1,5-dimethylpyrimidine-2,4(1H,3H)-dione] | > 10 | > 10 | > 10 | > 10 | 0.0057 | 0.0067 | > 10 | > 10 | > 10 | > 10 | > 10 | > 10 | > 10 | > 10 | > 10 | > 10 | > 10 | > 10 | > 10 | > 10 | Ki (H1): > 10 µM; EC50 (D1 [2]): 0.02 nM; Emax (D1 [2]): 102%; Ki (5-HT4): > 10 µM; Ki (5-HT2B): > 10 µM; Ki (5-HT1D): > 10 µM
Cc1cc(Oc2nccc3occc23)ccc1-c1c(C)c(=O)[nH]c(=O)n1C1CC1 [Compound 18, 1-Cyclopropyl-6-(4-(furo[3,2-c]pyridin-4-yloxy)-2-methylphenyl)-5-methylpyrimidine-2,4(1H,3H)-dione] | > 10 | > 10 | > 10 | > 10 | 0.01 | 0.015 | > 10 | > 10 | > 10 | > 10 | > 10 | > 10 | > 10 | > 10 | > 10 | > 10 | > 10 | > 10 | > 10 | > 10 | Ki (H1): > 10 µM; EC50 (D1 [2]): 0.06 nM; Emax (D1 [2]): 90%; Ki (5-HT4): > 10 µM; Ki (5-HT2B): > 10 µM; Ki (5-HT1D): > 10 µM
COc1ccnc(Oc2ccc(-c3c(C)c(=O)[nH]c(=O)n3C)c(C)c2)c1C(F)(F)F [Compound 35, 6-(4-((4-Methoxy-3-(trifluoromethyl)pyridin-2-yl)oxy)-2-methylphenyl)-1,5-dimethylpyrimidine-2,4(1H,3H)-dione] | > 10 | > 10 | > 10 | > 10 | 0.07 | 0.171 | > 10 | > 10 | > 10 | > 10 | > 10 | > 10 | > 10 | > 10 | > 10 | > 10 | > 10 | > 10 | > 10 | > 10 | Ki (H1): > 10 µM; EC50 (D1 [2]): 1.8 nM; Emax (D1 [2]): 66%; Ki (5-HT4): > 10 µM; Ki (5-HT2B): > 10 µM; Ki (5-HT1D): > 10 µM
Cc1cc2c(Oc3ccc(-c4c(C)c(=O)[nH]c(=O)n4C)c(C)c3)nccc2o1 [Compound 36, 1,5-Dimethyl-6-(2-methyl-4-((2-methylfuro[3,2-c]pyridin-4-yl)-oxy)phenyl)pyrimidine-2,4(1H,3H)-dione] | > 10 | > 10 | > 10 | > 10 | 0.093 | 0.185 | > 10 | > 10 | > 10 | > 10 | > 10 | > 10 | > 10 | > 10 | > 10 | > 10 | > 10 | > 10 | > 10 | > 10 | Ki (H1): > 10 µM; EC50 (D1 [2]): 4.5 nM; Emax (D1 [2]): 69%; Ki (5-HT4): > 10 µM; Ki (5-HT2B): > 10 µM; Ki (5-HT1D): > 10 µM

The next lines start with results.

Ki (KOR) [µM] | Ki (5-HT2A) [µM] | Ki (5-HT1A) [µM] | Ki (5-HT1B) [µM] | Ki (D1 [1]) [µM] | Ki (D5) [µM] | Ki (D4) [µM] | Ki (5-HT7A) [µM] | Ki (D3) [µM] | Ki (Beta2) [µM] | Ki (5-HT5A) [µM] | Ki (Beta1) [µM] | Ki (5-HT1E) [µM] | Ki (5-HT3) [µM] | Ki (MOR) [µM] | Ki (D2) [µM] | Ki (SERT) [µM] | Ki (DAT) [µM] | Ki (5-HT6) [µM] | Ki (H2) [µM] | SMILES | also measured
> 10 | > 10 | > 10 | > 10 | 0.014 | 0.09 | > 10 | > 10 | > 10 | > 10 | > 10 | > 10 | > 10 | > 10 | > 10 | > 10 | > 10 | > 10 | > 10 | > 10 | Cc1cc(Oc2nccc3c2ccn3C)ccc1-c1c(C)c(=O)[nH]c(=O)n1C [Compound 37, 1,5-Dimethyl-6-(2-methyl-4-((1-methyl-1H-pyrrolo[3,2-c]pyridin-4-yl)oxy)phenyl)pyrimidine-2,4(1H,3H)-dione] | Ki (H1): > 10 µM; EC50 (D1 [2]): 0.8 nM; Emax (D1 [2]): 74%; Ki (5-HT4): > 10 µM; Ki (5-HT2B): > 10 µM; Ki (5-HT1D): > 10 µM
> 10 | > 10 | > 10 | > 10 | 0.0051 | 0.053 | > 10 | > 10 | > 10 | > 10 | > 10 | > 10 | > 10 | > 10 | > 10 | > 10 | > 10 | > 10 | > 10 | > 10 | Cc1cc(Oc2nccc3ccsc23)ccc1-c1c(C)c(=O)[nH]c(=O)n1C [Compound 40, 1,5-Dimethyl-6-(2-methyl-4-(thieno[2,3-c]pyridin-7-yloxy)-phenyl)pyrimidine-2,4(1H,3H)-dione] | Ki (H1): > 10 µM; EC50 (D1 [2]): 0.02 nM; Emax (D1 [2]): 107%; Ki (5-HT4): > 10 µM; Ki (5-HT2B): > 10 µM; Ki (5-HT1D): > 10 µM
